Measured values: patent US20220370636A1, “NICOTINAMIDE ADENINE DINUCLEOTIDE ACTIVATOR AND USE THEREOF” (University of South Florida, priority 2021, published 2022)

Key:
db/db mice [1] = experiment: Echocardiography, body and heart weight in db/db mice; type: in vivo; conditions: 10 mg/kg/day i.p., four-weeks
Experimental: Echocardiography. Serial […] echocardiography was conducted under 2-3% isoflurane/oxygen anesthesia using a Visualsonic Vevo 770 system equipped with 30 MHz linear signal transducer (Toronto, Ontario, Canada). The mice were depilated as required for imaging and before placing on a 37° C. heated platform. Echo measurements were taken from at least three different cardiac cycles for each mouse. M-mode imaging from short-axis of the left ventricle (LV), using the papillary muscles for reference, was used to obtain measurements. Fractional shortening (FS %) and ejection fraction (EF %) were calculated as previously described.

db/db mice [2] = experiment: Fasting blood glucose, ITT, GTT and insulin in db/db mice
Experimental: Mice were fasted 6 h, and tail vein blood was used for glucose measurement with ACCU-CHECK blood glucose meter (Roche Diagnostics, Mannheim, Germany) on a weekly basis for 4 weeks.
Insulin tolerance test. […] After 4 weeks of treatment, both the db-Veh and db-P7C3 treated mice were fasted overnight for GTT assay. GTT was performed by a single dose of intraperitoneal injection of 2 g/kg body weight of D-(+)-glucose (Sigma-Aldrich, MO, USA). Blood samples were obtained by the retro orbital plexus technique. Serum glucose levels were determined prior to glucose administration (0 min) and after 30, 60, 90, and 120 min of glucose injection, using glucose oxidase peroxidase kit (Pointe Scientific Inc., MI. USA) and following manufacturer's instructions. […] The index of the total glucose shift was calculated as the area under the curve (AUC) using trapezium method.

With OC(CNc1ccccc1)Cn1c2ccc(Br)cc2c2cc(Br)ccc21 (centres unmarked) [P7C3, 3,6-Dibromo-a-[(phenylamino)methyl]-9H-carbazole-9-ethanol] the “ejection fraction (EF %)” value (db/db mice [1]) was “significantly increased”, the “fractional shortening (FS %)” value (db/db mice [1]) was “significantly increased” and the “fasting blood glucose levels” value (db/db mice [2]; 10 mg/kg/day i.p., 4 weeks, 6 h fasting, vs vehicle) was “significant decrease”. The “circulating blood glucose levels in response to the ITT” value (db/db mice [2]; 10 mg/kg/day i.p., 4 weeks, vs db-Veh) was “significantly reduced”, the HOMA-IR (db/db mice [2]; 4 weeks, vs db-Veh) was “decreased” and the circulating insulin levels (db/db mice [2]; 4 weeks, vs db-Veh) was “increased”. For the same compound, the “β cells function (HOMA-B)” value (db/db mice [2]; 4 weeks, vs db-Veh) was “increased” and the “GTT percent AUC” value (db/db mice [2]; trapezium method, vs db-Veh) was “significant decrease”.
